Measured values as given in US20230094922A1, “METHODS OF THERAPEUTIC PROGNOSTICATION” (GENETIKAPLUS LTD., priority 2020, published 2023).

Tested on: iPSC-derived cortical neurons
Assay: Dendritic arborization analysis (dendrite length), confocal imaging
Assay type: cell-based, human
Method: FIG. 7. Analysis of dendritic arborization. Dendritic arborization was analyzed using confocal microscopy in samples treated with Bupropion. Images for dendritic arborization were acquired with a 20× objective in z-stacks and analyzed using Neurolucida software. iPSC differentiation into neurons-iPSCs were seeded at a density of 3×10^6 cells/well on a hESC-qualified Matrigel pre-coated 6-well plate and incubated at 37° C., 5% CO2 overnight. Differentiation was initiated the following day (day 0) after verifying that 100% confluency was reached. Differentiation media was added daily according to the following order: […]7 (day 15 onward) similar to a previously published protocol developed by for rapid differentiation to cortical neurons. The components of the described media, Q1-7, are provided in Appendix 1. Cells were assessed for differentiation efficiency and cell death on a daily basis. […] Neuronal and synaptic morphology was assessed using the Neurolucida software, pre- and post-synaptic marker analysis was performed using CellProfiler and total dendritic length was measured using Fiji software.

CC(NC(C)(C)C)C(=O)c1cccc(Cl)c1 (stereo not drawn) [Bupropion, 3-Chloro-N-tert-butyl-β-keto-α-methylphenethylamin]
dendritic length, effect of treatment (significant decrease or not) (cells derived from non-responders): did not
dendritic length, effect of treatment (neurons derived from responders): significant decrease in dendritic length
